Test results published in paper PMC8657912, “Substrate-Dependent Trans-Stimulation of Organic Cation Transporter 2 Activity” (International Journal of Molecular Sciences, 2021).
Where two headings read alike, the source gives them in different places.

Legend:
human OCT2 [1] = target: T1, human OCT2 (Homo sapiens, UniProt O15244); test: Uptake trans-stimulation assay of OCT2-mediated DiASP uptake in HEK-OCT2 cells; assay type: cell-based; parameters: host or cells: HEK293 (HEK-OCT2); details: for Trans-modulation of OCT2-mediated DiASP uptake (in words): HEK-OCT2 cells preloaded 30 min with substrate, 0.01–10 mM or 0.1–100 µM range
T1 sequence (O15244 1-555): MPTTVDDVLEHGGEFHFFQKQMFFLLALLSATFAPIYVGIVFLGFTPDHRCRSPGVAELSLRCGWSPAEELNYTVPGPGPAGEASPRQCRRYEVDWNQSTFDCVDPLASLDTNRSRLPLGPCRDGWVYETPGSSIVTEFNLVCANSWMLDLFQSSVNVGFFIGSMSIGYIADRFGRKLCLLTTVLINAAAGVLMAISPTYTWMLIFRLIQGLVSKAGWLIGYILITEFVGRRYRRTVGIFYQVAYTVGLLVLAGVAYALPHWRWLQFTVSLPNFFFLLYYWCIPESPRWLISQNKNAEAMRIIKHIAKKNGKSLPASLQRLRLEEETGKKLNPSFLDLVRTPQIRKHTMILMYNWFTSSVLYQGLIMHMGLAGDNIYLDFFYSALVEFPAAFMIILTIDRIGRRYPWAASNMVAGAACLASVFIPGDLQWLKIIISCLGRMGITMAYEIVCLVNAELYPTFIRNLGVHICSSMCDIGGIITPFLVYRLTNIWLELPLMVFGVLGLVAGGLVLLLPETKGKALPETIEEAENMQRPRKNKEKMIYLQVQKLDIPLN
Protocol: Uptake trans-stimulation assays were performed as schematically depicted in Figure 4.
Figure 4 Schematic representation of the various steps of the trans-stimulation assay performed for investigating OCT2 substrates (created with biorender.com). Step 1 corresponds to the initial incubation of cells without (Control) or with candidate substrate for 30 min at 37 °C. Step 2 consists of the incubation of cells with the reference tracer substrate (DiASP) for 5 min at 37 °C. Step 3 is the measurement of cellular accumulation of DiASP through spectrofluorimetry.
(§1) They were cultured in Dulbecco’s modified Eagle medium (DMEM) (Life Technologies, Carlsbad, CA, USA), supplemented with 10% (vol/vol) fetal calf serum, 10 IU/mL penicillin, 10 μg/mL streptomycin, 1% non-essential amino acids, and 1 μg/mL insulin, as already reported.
OCT2 trans-stimulation assays were performed through monitoring cellular uptake of the tracer substrate DiASP. As schematically depicted in Figure 4, HEK-OCT2 cells were first incubated in the absence (control) or presence of different concentrations of OCT2 substrates for 30 min at 37 °C in the transport assay medium described above. After washing with PBS, cells were re-incubated with 10 µM DiASP for 5 min. Cellular accumulation of the fluorescence dye was next determined by spectrofluorimetry, as reported above. Data were commonly expressed as % of DiASP uptake in control cells, set at 100%, or as fluorescence arbitrary units (FAU)/mg protein.

human OCT2 [2] = target: T1, human OCT2; test: Cis-inhibition of OCT2-mediated DiASP uptake in HEK-OCT2 cells
Protocol: as §1
Cis-inhibition of OCT2 activity was analysed as previously described. Briefly, HEK-OCT2 cells were incubated with 10 µM DiASP, in the absence (control) of the presence of 100 µM amitriptyline (used here as a reference inhibitor of OCT2 activity) or of various concentrations of the OCT2 substrates, for 5 min. The transport assay medium consisted of 5.3 mM KCl, 1.1 mM KH2PO4, 0.8 mM MgSO4, 1.8 mM CaCl2, 11 mM dextrose, 10 mM HEPES, and 136 mM NaCl, adjusted to pH = 7.4. Next, cells were washed with phosphate-buffered saline (PBS) and lysed in distilled water. Intracellular accumulation of DiASP was then determined by spectrofluorimetry using a PerkinElmer Enspire spectrofluorometer (Waltham, MA, USA); excitation and emission wavelengths were 485 nm and 607 nm, respectively. DiASP accumulation values were thereafter normalized to total protein content, determined by the Bradford method.
IC50 values of OCT2 substrates towards OCT2-mediated uptake of DiASP and the corresponding 95% confidence intervals were determined from nonlinear regression of concentration-response data, based on the four-parameter logistic function. They were calculated using Prism 9.3 software (GraphPad Software, San Diego, CA, USA), through the following Equation (2):(2) A = 100/1 + 10^OCT2 substrate − LogIC50 × Hill slope where A = the percentage of transporter activity for a given concentration of OCT2 substrate determined as described in Equation (1), [OCT2 substrate] = OCT2 substrate concentration in the transport assay medium, and Hill slope = a coefficient describing the steepness of the curve.

OCT3 (SLC22A3) = system: OCT3 (SLC22A3); parameters: method as in PMID 12538837; details: cited from earlier work
OCT2 = details: cited from earlier work; for Trans-stimulation of OCT2 activity: radiolabelled MPP+ as tracer substrate; for Trans-stimulation of OCT2-mediated MPP+ uptake: MPP+ as tracer
HEK-MOCK cells = test: Trans-stimulation assay of DiASP uptake in control HEK-MOCK cells; assay type: cell-based, human; details: data not shown
[3] = HEK-OCT2 cells preloaded 30 min 37 °C, washed, then 10 µM DiASP 5 min
[4] = read-out: IC50 towards OCT2-mediated uptake of DiASP (cis-inhibition), HEK-OCT2 cells, 10 µM DiASP, 5 min, 37 °C, 95% CI in brackets

SMILES | Trans-modulation of OCT2-mediated DiASP uptake (in words) (human OCT2 [1]) | IC50 (human OCT2 [2]) [µM] | Lowest trans-inhibiting concentration towards DiASP uptake (human OCT2 [1]; [3]) [mM] | further results
CC(=O)OCC[N+](C)(C)C [Acetylcholine, acetylcholine] | trans-stimulate | 530 |  | 
NCCCCN=C(N)N [Agmatine, agmatine] | trans-stimulate | 410 | 10 | Loading concentration that significantly trans-stimulates DiASP uptake (human OCT2 [1]; [3]): 0.1 mM; Trans-stimulation of OCT3 activity (OCT3 (SLC22A3)): trans-stimulate
CCN1CCCC1CNC(=O)c1cc(S(=O)(=O)CC)c(N)cc1OC (centres unmarked) [Amisulpride, amisulpride] |  | 40 |  | 
C[N+](C)(C)CCO [Choline, choline] | trans-stimulate | 1330 |  | Trans-stimulation of OCT2 activity (OCT2): trans-stimulate; Loading concentration that significantly trans-stimulates DiASP uptake (human OCT2 [1]; [3]): 1 mM
CN/C(=N/CCSCc1nc[nH]c1C)NC#N [Cimetidine, cimetidine] | failed to trans-stimulate | 79.6 | 10 | Trans-stimulation of OCT2-mediated MPP+ uptake (OCT2): failed to trans-stimulate
NCCc1ccc(O)c(O)c1 [Dopamine, dopamine] |  | 2390 | 10 | 
CNC[C@H](O)c1ccc(O)c(O)c1 [Epinephrine, epinephrine] |  | 1490 | 1 | 
Nc1ccn([C@@H]2CS[C@H](CO)O2)c(=O)n1 [Lamivudine, lamivudine] |  | 1900 |  | Lowest trans-inhibiting concentration towards DiASP uptake (human OCT2 [1]): 10 mM
C[n+]1ccc(-c2ccccc2)cc1 [MPP^+, 1-methyl-4-phenyl pyridinium] | failed to trans-stimulate |  |  | Trans-stimulation of OCT2-mediated MPP+ uptake (OCT2): failed to trans-stimulate; IC50 (human OCT2 [2]; [4]): 0.91 µM
CN(C)C(=N)N=C(N)N [Metformin, metformin] | trans-stimulate | 1140 |  | Trans-stimulation of OCT2 activity (OCT2): trans-stimulate; Trans-stimulation of DiASP uptake in control HEK-MOCK cells (HEK-MOCK cells): failed to significantly trans-stimulate
COCCn1c2c([n+](Cc3cnccn3)c1C)C(=O)c1ccccc1C2=O [Sepantronium, sepantronium] |  | 7.04 | 0.001 | 
NCCc1c[nH]c2ccc(O)cc12 [Serotonin, serotonin] |  | 180 | 1 | 
CC[N+](CC)(CC)CC [TEA, tetra-ethylammonium] |  |  |  | IC50 (human OCT2 [2]; [4]): 180 µM
Cc1ncc(C[n+]2csc(CCO)c2C)c(N)n1 [Thiamine, thiamine] |  | 270 | 10 | 
CN(C)CCC=C1c2ccccc2CCc2ccccc21 [amitriptyline] |  |  |  | Effect on metformin-stimulated uptake of DiASP (human OCT2 [1]; 100 µM amitriptyline during DiASP step, cells preloaded with 10 mM metformin 30 min): fully suppressed; Effect on uptake of DiASP in HEK-OCT2 cells not preloaded with metformin (human OCT2 [2]; 100 µM amitriptyline, 10 µM DiASP 5 min 37 °C): abolished
